The text below walks through data of publication PMC6471386, “Cloning, Expression, and Characterization of a Psychrophilic Glucose 6-Phosphate Dehydrogenase from Sphingomonas sp. PAMC 26621” (International Journal of Molecular Sciences, 2019).

The Km is the concentration of substrate that gives half-maximal velocity.

For the test, the target named is T1, SpG6PD1 (Sphingomonas sp. PAMC 26621, UniProt Z9Q3C2ML64).
T1 construct: cloning primer appears to add Gly after Met1 (ATGGGGCCAATC); 56 kDa on SDS-PAGE; tag removal not mentioned
T1 sequence (Z9Q3C2ML64 1-488): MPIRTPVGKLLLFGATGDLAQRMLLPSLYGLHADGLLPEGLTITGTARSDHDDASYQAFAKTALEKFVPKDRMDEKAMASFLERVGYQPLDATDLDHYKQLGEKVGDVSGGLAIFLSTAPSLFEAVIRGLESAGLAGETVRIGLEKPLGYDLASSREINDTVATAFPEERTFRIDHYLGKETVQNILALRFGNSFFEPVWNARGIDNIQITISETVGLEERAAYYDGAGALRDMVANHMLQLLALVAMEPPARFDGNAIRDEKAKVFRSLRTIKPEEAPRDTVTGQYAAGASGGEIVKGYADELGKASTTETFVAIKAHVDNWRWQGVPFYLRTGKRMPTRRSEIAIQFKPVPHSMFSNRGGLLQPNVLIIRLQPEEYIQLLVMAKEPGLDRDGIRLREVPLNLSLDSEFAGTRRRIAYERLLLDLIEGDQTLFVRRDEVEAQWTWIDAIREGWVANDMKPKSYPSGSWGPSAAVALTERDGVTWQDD
Kind of test: NAD(P)H formation at […] nm, Lineweaver-Burk. The settings on record: NADP+ as co-substrate (assay mixture 100 µM); G6P varied 500-2000 µM; 50 mM Tris-HCl pH 8.0, 25 mM NaCl, 0.1 mM EDTA, 5% glycerol; 30 °C. In kind it is biochemical.

As for `O=P(O)(O)OC[C@H]1OC(O)[C@H](O)[C@@H](O)[C@@H]1O` (stereo partly shown) [glucose 6-phosphate], the Km was found to be 145 ± 2 µM.
